In BindingDB's records for doi:10.1021/acschembio.7b00543 (University of Delaware, 2017):

What was measured:
Test in all cases: Fluorometric Ub-AMC Hydrolysis Assay
Details in all cases: pH 7.5; 25 °C
[1] = molecular target: T1, Ubiquitin carboxyl-terminal hydrolase isozyme L5 (Homo sapiens, UniProt Q9Y5K5)
T1 sequence (Q9Y5K5 whole entry): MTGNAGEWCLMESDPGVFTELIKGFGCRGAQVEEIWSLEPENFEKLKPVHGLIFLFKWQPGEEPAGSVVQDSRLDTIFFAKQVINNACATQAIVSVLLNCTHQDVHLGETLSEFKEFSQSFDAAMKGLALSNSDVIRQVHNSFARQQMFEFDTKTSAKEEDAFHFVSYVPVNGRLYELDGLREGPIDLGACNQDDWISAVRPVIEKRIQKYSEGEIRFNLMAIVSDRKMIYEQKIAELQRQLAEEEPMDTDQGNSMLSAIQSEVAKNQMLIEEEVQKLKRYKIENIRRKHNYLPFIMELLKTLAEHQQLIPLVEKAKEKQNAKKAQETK
Experimental: (§1) 2 nM UCHL1, UCHL5, USP15, USP2, or 2 pM UCHL3 were incubated with increasing concentrations of inhibitor in assay buffer for 5 min at room temperature. To initiate the reaction, 1 uM Ub-AMC was added and the fluorescence signal was detected for 60 s with a 380 nm excitation and 460 nm emission filter set.

[2] = molecular target: T2, Ubiquitin carboxyl-terminal hydrolase 2 (Homo sapiens, UniProt O75604)
T2 sequence (O75604 whole entry): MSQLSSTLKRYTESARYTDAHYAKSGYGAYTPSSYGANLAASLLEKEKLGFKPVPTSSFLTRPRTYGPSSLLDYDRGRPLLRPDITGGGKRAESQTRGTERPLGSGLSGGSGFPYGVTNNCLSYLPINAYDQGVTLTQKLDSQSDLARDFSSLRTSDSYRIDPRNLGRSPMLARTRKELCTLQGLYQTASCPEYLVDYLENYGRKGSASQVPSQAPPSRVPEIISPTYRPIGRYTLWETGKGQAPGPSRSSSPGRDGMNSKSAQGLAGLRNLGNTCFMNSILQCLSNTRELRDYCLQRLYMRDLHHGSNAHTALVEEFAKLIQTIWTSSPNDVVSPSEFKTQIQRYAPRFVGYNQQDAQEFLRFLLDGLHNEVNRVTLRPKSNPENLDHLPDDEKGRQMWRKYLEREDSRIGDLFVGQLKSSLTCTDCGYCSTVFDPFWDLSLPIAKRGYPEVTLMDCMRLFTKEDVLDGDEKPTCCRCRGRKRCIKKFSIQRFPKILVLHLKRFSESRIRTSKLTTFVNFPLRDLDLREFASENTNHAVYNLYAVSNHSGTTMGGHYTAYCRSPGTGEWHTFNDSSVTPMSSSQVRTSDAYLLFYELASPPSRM
Experimental: as §1

[3] = molecular target: T3, Ubiquitin carboxyl-terminal hydrolase isozyme L3 (Homo sapiens, UniProt P15374)
T3 sequence (P15374 whole entry): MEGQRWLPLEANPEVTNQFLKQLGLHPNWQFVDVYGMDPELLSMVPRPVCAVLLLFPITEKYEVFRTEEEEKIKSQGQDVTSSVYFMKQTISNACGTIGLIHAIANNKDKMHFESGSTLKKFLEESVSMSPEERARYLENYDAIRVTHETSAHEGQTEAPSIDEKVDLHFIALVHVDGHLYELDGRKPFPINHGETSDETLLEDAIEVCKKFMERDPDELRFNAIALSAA
Experimental: as §1

[4] = molecular target: T4, Ubiquitin carboxyl-terminal hydrolase isozyme L1 (Homo sapiens, UniProt P09936)
T4 sequence (P09936 whole entry): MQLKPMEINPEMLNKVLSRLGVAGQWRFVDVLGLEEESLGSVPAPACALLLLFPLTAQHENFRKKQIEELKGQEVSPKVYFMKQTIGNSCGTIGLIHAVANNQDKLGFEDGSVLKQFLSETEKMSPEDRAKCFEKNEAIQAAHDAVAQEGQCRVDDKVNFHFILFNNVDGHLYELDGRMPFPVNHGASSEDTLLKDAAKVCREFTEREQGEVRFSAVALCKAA
Experimental: as §1

[5] = molecular target: T5, Ubiquitin carboxyl-terminal hydrolase 15 (Homo sapiens, UniProt Q9Y4E8)
T5 sequence (Q9Y4E8 whole entry): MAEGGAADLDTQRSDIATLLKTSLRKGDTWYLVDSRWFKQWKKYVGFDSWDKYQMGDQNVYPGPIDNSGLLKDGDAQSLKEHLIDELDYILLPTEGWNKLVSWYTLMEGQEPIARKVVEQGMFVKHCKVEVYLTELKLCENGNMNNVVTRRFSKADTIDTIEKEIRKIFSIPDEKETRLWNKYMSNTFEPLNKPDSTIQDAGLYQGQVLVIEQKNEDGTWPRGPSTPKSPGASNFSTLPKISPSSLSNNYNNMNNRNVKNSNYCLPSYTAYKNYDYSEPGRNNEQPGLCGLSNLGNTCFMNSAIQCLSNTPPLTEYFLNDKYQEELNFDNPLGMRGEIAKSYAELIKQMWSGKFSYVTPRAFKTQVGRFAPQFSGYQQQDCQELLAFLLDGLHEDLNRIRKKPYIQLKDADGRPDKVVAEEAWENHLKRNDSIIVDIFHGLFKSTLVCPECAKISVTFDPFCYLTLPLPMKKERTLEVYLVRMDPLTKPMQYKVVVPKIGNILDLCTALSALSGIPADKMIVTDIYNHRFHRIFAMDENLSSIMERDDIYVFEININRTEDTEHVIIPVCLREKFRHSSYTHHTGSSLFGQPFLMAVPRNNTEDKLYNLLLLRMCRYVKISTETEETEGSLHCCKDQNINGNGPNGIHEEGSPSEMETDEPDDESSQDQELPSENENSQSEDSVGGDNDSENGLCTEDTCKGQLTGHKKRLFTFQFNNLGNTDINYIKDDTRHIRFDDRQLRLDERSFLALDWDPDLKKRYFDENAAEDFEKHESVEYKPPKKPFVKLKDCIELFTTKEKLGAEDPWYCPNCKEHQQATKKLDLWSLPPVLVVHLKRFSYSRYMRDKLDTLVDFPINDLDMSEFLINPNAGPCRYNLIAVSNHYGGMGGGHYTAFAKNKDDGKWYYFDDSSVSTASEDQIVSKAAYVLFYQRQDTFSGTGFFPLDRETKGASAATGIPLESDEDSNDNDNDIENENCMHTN
Experimental: as §1

| Compound | IC50 [1] [µM] | IC50 [2] [µM] | IC50 [3] [µM] | IC50 [4] [µM] | IC50 [5] [µM] |
| --- | --- | --- | --- | --- | --- |
| Cc1cnc(-c2ccccc2C(C)C)nc1NCc1ccc(-n2ccnn2)cc1 | > 114 | > 114 | > 114 |  |  |
| CC(=O)Oc1c2c(c(CC=C(C)C)c3c1C(=O)C1=C[C@@H]4CC5C(C)(C)OC(C/C=C(\C)C(=O)O)(C4=O)[C@@]15O3)OC(C)(CCC=C(C)C)C=C2 (stereo not given in full) | 36.5 | 18.2 | 15.4 | 5.4 | 11.1 |
| CC(=O)ON=C1C(=O)N(Cc2cc(Cl)ccc2Cl)c2ccc(Cl)cc21 [5-Chloro-1-[(2,5-dichlorophenyl)methyl]-1H-indole-2,3-dione 3-(O-acetyloxime)] | 16.2 |  | 14.1 |  |  |
| CC1=C(O)C(=O)C=C2C1=CC=C1[C@@]2(C)CC[C@@]2(C)[C@@H]3C[C@](C)(C(=O)O)CC[C@]3(C)CC[C@]12C [Celastrol] | 56.6 | 28.7 | 32.1 | 6.8 | 32.8 |
| CO[C@H]1/C=C/O[C@@]2(C)Oc3c(C)c(O)c4c(c3C2=O)C(=O)/C(=C/NN2CCN(C)CC2)C(=C4O)NC(=O)/C(C)=C\C=C\[C@H](C)[C@H](O)[C@@H](C)[C@@H](O)[C@@H](C)[C@H](OC(C)=O)[C@@H]1C [Rifampicin] | 62.8 | 21.2 | 24.8 | 19.5 | 46.1 |
